Experimental data from publication PMC6199744, “Development of Chemical Proteomics for the Folateome and Analysis of the Kinetoplastid Folateome” (ACS Infectious Diseases, 2018).
Where two headings read alike, the source gives them in different places.

Experiments:
Type in all cases: binding
[1] = molecular target: T1, HeLa cell extract proteins (Homo sapiens, UniProt Q10570)
T1 construct: endogenous in cells; host or cells: HeLa cell extract
T1 sequence (Q10570 1-1443): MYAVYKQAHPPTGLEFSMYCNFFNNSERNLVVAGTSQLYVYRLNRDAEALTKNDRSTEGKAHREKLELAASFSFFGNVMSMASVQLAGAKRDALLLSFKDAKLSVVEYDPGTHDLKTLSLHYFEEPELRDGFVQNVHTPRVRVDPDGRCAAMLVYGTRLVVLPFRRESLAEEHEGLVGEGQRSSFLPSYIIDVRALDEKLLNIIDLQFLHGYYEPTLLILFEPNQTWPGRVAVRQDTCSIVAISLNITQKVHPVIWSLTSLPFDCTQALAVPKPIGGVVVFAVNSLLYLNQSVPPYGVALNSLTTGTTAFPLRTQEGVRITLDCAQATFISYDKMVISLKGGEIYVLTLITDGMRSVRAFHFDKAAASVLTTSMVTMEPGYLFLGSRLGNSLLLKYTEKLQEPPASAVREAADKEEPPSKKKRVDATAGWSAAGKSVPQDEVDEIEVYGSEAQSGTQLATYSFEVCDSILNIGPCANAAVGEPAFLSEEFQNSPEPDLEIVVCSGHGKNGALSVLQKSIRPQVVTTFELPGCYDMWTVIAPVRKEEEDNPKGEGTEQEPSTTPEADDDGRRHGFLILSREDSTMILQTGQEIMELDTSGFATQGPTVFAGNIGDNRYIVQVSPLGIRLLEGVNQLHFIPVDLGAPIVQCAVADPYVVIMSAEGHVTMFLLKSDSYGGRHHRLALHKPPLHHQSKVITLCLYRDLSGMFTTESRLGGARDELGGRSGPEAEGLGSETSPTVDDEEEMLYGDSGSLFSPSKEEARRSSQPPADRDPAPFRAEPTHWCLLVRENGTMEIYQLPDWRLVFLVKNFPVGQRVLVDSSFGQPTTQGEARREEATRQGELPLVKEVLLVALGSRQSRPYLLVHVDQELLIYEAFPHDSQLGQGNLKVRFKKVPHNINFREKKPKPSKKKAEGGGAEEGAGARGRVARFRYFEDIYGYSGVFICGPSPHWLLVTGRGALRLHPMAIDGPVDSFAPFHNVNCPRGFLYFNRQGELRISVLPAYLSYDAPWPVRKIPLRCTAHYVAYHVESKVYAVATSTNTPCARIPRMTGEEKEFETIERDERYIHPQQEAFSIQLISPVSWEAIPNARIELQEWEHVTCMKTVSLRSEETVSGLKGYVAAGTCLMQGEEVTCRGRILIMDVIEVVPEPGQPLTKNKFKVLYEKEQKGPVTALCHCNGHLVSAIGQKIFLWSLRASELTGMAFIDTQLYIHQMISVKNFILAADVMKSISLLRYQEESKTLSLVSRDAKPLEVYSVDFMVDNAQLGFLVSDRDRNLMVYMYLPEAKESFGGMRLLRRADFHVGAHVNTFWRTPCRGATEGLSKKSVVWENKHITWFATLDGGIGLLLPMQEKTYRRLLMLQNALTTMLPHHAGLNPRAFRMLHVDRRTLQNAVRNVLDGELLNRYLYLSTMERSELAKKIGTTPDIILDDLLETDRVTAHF

[2] = molecular target: T2, HeLa cell extract proteins (Homo sapiens, UniProt Q9UPU5)
T2 construct: endogenous in cells; host or cells: HeLa cell extract
T2 sequence (Q9UPU5 whole entry): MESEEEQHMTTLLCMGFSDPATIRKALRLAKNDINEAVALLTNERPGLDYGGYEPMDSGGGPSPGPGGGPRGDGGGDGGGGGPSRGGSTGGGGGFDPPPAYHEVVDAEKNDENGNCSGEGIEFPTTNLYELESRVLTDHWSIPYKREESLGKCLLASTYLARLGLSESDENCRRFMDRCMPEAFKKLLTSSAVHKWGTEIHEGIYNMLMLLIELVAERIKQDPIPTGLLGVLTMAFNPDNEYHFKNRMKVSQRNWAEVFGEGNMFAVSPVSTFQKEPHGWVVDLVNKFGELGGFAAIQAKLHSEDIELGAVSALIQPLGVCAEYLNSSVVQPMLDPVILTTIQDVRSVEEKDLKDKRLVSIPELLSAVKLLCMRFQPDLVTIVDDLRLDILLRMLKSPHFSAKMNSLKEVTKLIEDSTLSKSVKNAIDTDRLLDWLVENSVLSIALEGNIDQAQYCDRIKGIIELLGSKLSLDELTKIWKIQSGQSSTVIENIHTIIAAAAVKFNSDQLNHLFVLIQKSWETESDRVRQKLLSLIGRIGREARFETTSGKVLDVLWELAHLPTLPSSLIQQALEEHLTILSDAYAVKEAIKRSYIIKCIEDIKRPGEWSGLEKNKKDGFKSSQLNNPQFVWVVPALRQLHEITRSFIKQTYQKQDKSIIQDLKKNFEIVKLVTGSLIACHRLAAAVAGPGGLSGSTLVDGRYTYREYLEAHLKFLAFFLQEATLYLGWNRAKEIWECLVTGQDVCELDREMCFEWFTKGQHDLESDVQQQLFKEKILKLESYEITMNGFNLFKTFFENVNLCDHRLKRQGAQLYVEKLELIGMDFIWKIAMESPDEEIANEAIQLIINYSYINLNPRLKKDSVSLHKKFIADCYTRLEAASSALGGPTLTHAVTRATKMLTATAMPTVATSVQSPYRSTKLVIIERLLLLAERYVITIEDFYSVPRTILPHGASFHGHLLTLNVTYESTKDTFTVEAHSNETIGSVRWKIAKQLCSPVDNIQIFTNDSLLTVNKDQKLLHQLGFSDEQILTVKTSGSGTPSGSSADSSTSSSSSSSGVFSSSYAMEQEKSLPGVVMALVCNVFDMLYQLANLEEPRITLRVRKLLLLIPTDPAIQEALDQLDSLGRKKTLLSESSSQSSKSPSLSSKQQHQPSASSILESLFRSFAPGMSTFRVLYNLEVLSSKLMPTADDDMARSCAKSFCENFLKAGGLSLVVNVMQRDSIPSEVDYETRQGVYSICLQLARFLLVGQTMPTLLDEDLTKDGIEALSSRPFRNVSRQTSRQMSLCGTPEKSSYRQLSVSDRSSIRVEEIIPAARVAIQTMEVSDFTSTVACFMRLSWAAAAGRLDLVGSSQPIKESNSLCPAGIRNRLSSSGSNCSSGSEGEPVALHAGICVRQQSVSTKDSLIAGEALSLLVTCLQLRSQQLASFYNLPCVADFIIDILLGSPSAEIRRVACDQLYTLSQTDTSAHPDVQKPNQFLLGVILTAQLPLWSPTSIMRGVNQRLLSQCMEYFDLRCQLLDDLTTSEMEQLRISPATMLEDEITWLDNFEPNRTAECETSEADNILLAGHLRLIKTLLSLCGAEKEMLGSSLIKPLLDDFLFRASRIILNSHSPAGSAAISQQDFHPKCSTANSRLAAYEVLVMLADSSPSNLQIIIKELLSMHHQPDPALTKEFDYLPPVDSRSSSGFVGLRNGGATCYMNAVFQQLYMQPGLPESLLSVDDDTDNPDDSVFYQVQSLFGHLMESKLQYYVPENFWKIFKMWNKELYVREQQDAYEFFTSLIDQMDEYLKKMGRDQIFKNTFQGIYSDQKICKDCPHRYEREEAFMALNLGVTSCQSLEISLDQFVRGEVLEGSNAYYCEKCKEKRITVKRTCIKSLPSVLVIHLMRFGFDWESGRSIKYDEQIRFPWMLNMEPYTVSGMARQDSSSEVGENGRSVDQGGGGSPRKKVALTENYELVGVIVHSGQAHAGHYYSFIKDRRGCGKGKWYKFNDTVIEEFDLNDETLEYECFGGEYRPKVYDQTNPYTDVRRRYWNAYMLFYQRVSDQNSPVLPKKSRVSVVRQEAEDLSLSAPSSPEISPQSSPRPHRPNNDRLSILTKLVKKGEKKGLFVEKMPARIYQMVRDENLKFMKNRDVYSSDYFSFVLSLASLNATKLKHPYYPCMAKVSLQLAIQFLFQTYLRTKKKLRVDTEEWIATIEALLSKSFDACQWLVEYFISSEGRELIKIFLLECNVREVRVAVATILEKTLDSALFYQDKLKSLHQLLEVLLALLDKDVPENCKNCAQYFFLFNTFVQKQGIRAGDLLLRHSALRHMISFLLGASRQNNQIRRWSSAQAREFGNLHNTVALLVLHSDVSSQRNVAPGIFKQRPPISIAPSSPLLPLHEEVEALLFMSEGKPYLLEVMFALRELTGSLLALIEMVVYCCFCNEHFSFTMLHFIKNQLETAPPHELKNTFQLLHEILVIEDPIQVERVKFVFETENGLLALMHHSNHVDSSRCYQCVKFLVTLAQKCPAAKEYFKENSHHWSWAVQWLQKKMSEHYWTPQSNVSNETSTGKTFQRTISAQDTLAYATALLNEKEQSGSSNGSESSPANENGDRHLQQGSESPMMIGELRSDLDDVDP

[3] = molecular target: T3, HeLa cell extract proteins (Homo sapiens, UniProt Q9Y5A9); details: captured protein YTHDF2; HeLa
T3 construct: endogenous in cells; host or cells: HeLa cell extract
T3 sequence (Q9Y5A9 1-579): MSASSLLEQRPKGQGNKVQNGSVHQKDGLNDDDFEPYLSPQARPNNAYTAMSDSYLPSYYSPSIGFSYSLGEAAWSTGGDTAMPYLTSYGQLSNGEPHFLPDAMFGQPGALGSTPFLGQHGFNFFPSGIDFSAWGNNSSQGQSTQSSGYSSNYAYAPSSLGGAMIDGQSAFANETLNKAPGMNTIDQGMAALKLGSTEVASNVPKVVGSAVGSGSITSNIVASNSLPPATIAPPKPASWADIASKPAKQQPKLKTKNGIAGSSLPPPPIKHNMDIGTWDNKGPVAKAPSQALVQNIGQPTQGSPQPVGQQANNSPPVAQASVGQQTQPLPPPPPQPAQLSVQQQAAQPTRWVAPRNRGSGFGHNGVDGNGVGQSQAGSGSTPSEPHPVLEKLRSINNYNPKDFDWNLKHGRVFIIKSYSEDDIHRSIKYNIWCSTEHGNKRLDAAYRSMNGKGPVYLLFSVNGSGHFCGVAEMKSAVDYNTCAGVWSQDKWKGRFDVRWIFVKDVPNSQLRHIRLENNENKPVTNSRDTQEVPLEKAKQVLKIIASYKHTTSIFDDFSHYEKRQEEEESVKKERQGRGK

[4] = molecular target: T4, HeLa cell extract proteins (Homo sapiens, UniProt Q9Y5M8); details: captured protein SRPRB; HeLa
T4 construct: endogenous in cells; host or cells: HeLa cell extract
T4 sequence (Q9Y5M8 1-271): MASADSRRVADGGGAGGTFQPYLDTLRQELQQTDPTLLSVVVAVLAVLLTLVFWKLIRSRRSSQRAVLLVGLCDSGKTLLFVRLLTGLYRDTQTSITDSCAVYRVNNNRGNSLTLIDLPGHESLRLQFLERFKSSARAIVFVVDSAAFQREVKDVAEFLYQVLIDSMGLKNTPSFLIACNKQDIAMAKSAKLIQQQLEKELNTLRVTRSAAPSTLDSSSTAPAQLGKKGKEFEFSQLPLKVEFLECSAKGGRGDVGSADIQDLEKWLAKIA

SMILES | fold changes relative to vehicle control ([1]; HeLa, captured protein CPSF1) | fold changes relative to vehicle control ([2]; protein USP24, HeLa) | fold changes relative to vehicle control [3] | fold changes relative to vehicle control [4] | further results
Nc1nc2c(c(=O)[nH]1)N(C=O)C(CNc1ccc(C(=O)N[C@@H](CCC(=O)O)C(=O)O)cc1)CN2 (some centres unmarked) [LEU, leucovorin] | 0.95 | 0.85 | – | – | –
NCCCNc1ccc(C(=O)NC(CCC(=O)O)C(=O)O)cc1 (centres unmarked) [compound 7] | 0.93 | 0.84 | – | – | –
CCCCCCOc1cccc(Cc2cnc(N)nc2N)c1 [compound 2] | – | – | 1.16 | 1.08 | –
CCCCCCOc1ccc(Cc2cnc(N)nc2N)cc1 [compound 1] | – | – | 0.79 | 1.12 | –
Nc1nc2cccc(-c3ccccc3)c2n1Cc1ccc(Cl)c(Cl)c1 [compound 3] | – | – | 1.01 | 0.91 | –
NCCOCCOCC(=O)Nc1nc2ncc(CNc3ccc(C(=O)NC(CCC(=O)O)C(=O)O)cc3)nc2c(=O)[nH]1 (centres unmarked) [compound 6] | 0.97 | 1.01 | – | – | –
Nc1nc2[nH]cc(CCc3ccc(C(=O)N[C@@H](CCC(=O)O)C(=O)O)cc3)c2c(=O)[nH]1 [PTX, pemetrexed] | – | – | – | – | fold changes relative to vehicle control [1]: 0.88; fold changes relative to vehicle control [2]: 0.89
